These results are taken from article PMC7432809, “Antimicrobial Activity of Small Synthetic Peptides Based on the Marine Peptide Turgencin A: Prediction of Antimicrobial Peptide Sequences in a Natural Peptide and Strategy for Optimization of Potency” (International Journal of Molecular Sciences, 2020).

Where two headings read alike, the source gives them in different places. Where a SMILES comes first, the peptide text is derived from it. Bridges are numbered along the chain shown (N, C = ends). Where no end group is shown, it is not given here.

For test [1], the system named is B. subtilis 168 (pCSS962). Briefly: Real-time membrane integrity assay (luciferase, D-luciferin). Type of test: cell-based, Bacillus subtilis. As to conditions: lowest concentration tested. The text has this:
(§1) Based on the results from antibacterial screening and the bacterial killing experiment, StAMP-6-10 were further studied for their immediate effect on the membrane integrity and viability on B. subtilis 168 and E. coli K12. In the integrity assay, both bacteria are carrying the luciferase lucGR gene within the plasmid pCSS962. When a compound disrupts the membrane, externally added D-luciferin can diffuse into the cells and function as a substrate for the luciferase enzyme. This, in turn, causes the emission of light as relative luminescence units (RLU), a signal whose strength is relative to the degree of membrane disruption in living cells. If the test compound affects the membrane sufficiently to cause bacterial death, the RLU signal will increase until the bacterial ATP storage is empty. At this time, the RLU signal will decrease in line with the decreasing ATP concentrations, as the enzymatic reaction gradually stops. […] Following membrane disruption, the RLU will reach its peak and start to decrease due to reduced cell numbers. In the assay setup used herein, RLU was measured over a period of 3 min. The short time period was selected as many membrane disruptive compounds usually affect the bacterial membranes immediately. […]

Another test has as its system B. subtilis 168. Briefly: Real-time bacterial cell viability assay (lux operon). Type of test: cell-based, Bacillus subtilis. As to conditions: lowest concentration tested. The text has this: (§2) A real-time cell viability assay was used to investigate the bactericidal effect of StAMP-6-10. B. subtilis 168 contains a chromosomally integrated lux operon, and E. coli K12 a plasmid-borne lux operon. Both strains emit light as long as they have an active metabolism. If a compound reduces the metabolic activity of the bacteria it will reduce the viability of the cells. […] The decrease in light emission caused by StAMP-8-10 shown in both assays confirmed that these three peptides killed both strains at 50 µg/mL, but not as rapidly as the control chlorhexidine. The same activity observed for StAMP-8-10 in the membrane integrity assay was also observed in both viability assays (Figures S7–S12). […] Only at the lowest concentration tested (0.8 µg/mL), was there no observed membrane activity for these assays.
(§3) A real-time cell viability assay (modified from) was performed using B. subtilis 168 carrying an optimized luxABCDE operon controlled by the promoter Pveg, and E. coli K12 carrying the plasmid pCGLS-11 [53] with the luxCDABE operon from Xenorhabdus luminescence. The procedure was conducted as previously described. The bacteria (~5 × 10^7 bacteria/mL) were subjected to ranging concentrations of StAMP-6-10 (50–3.1 µg/mL) and the positive control to chlorhexidine acetate (assay concentrations 100–1.6 µg/mL). MQ-H2O was used as a negative control. […]

In the next test the test system is E. coli K12 (pCGLS-11). The test is described as above. The test is classed as cell-based, Escherichia coli. As to conditions: lowest concentration tested.
From the text: as §2, §3

A further test relates to E. coli K12 (pCSS962). Briefly: Real-time membrane integrity assay (luciferase, D-luciferin). Type of test: cell-based, Escherichia coli. Particulars: lowest concentration tested.
From the text: as §1

In test [2] the test system is Escherichia coli (ATCC 25922). As to conditions: turgencin A data ref Hansen et al. [24]; cited from earlier work. The text has this:
Table 3 Antimicrobial activities of turgencin A and the synthesized StAMP-1–11 peptides. | column: Gram-Neg / Ec

Another test relates to Bacillus megaterium. Nature of the test: microbe, parasite or virus in culture. The test is classed as cell-based. The procedure: (§4) The synthesized peptides were screened for antibacterial activity against five strains of G+ bacteria: B. subtilis (Bs, ATCC 23857), C. glutamicum (Cg, ATCC 13032), S. aureus (Sa, ATCC 9144), Micrococcus luteus (Ml), B. megaterium (Bm) (the last two were obtained from professor Olaf B. Styrvold, UiT The Arctic University of Norway).
(§5) Two strains of G- bacteria, P. aeruginosa (Pa, ATCC 27853) and E. coli (Ec, ATCC 25922), were also used. Cultures stored at -80 °C in glycerol were transferred to Müller–Hinton plates (MH, Difco Laboratories, Detroit, MI, USA) and incubated for 24 h at 35 °C. Colonies of each strain were transferred to 5 mL liquid MH medium and left shaking (600 rpm) at room temperature overnight. An aliquot of actively growing bacteria (20 µL) was inoculated in 5 mL MH medium and left shaking for 2 h at room temperature. In order to have a sensitive bioassay, the bacterial cultures were diluted with medium to only 2.5–3 × 10^4 bacteria/mL and an aliquot of 50 µL was added to each well in 96 microwell plates (Thermo Fisher Scientific, Roskilde, Denmark) preloaded with peptide solution (50 µL). The antibacterial assays were performed as previously described. The microtiter plates were incubated for 24 h at 35 °C with optical density (595 nm) recorded every hour using an Envision 2103 multilabel reader, controlled by a Wallac Envision manager (PerkinElmer, Waltham, MA, USA). The minimum inhibitory concentration (MIC) was defined as the sample concentration showing an optical density less than 10% of the negative (growth) control, consisting of bacteria and MQ-H2O. Oxytetracycline (concentrations ranging from 20–0.02 µg/mL, Sigma-Aldrich) and indolicidin (concentration ranging from 200–0.2 µg/mL, Sigma-Aldrich) served as a positive (inhibition) control. The synthetic peptides were tested for antibacterial activity in concentrations ranging from 250 to 0.5 µg/mL in two-fold dilutions. All tests were performed in triplicates.

For the next test, the system named is Micrococcus luteus. Nature of the test: microbe, parasite or virus in culture. Type of test: cell-based. The procedure: as §4, §5
Test [3] deals with Staphylococcus aureus (ATCC 9144). As to conditions: turgencin A data ref Hansen et al. [24]; cited from earlier work. The text has this:
Table 3 Antimicrobial activities of turgencin A and the synthesized StAMP-1–11 peptides. | column: Gram-Pos / Sa

For test [4], the system named is Bacillus subtilis (ATCC 23857). Particulars: turgencin A data ref Hansen et al. [24]; cited from earlier work. The text has this: Table 3 Antimicrobial activities of turgencin A and the synthesized StAMP-1–11 peptides. | column: Gram-Pos / Bs
The test system of test [5] is Candida albicans (ATCC 10231). Nature of the test: microbe, parasite or virus in culture. Type of test: cell-based. The procedure:
(§6) StAMP-1–11 were screened for antifungal activity against C. albicans (Ca, ATCC 10231), A. pullulans (Ap) and Rhodotorula sp. (Rh) (the last two were obtained from professor Arne Tronsmo, The Norwegian University of Life Sciences, Ås, Norway). The antifungal assay was performed as previously described with a few modifications. Briefly, fungal spores were dissolved in potato dextrose broth (Difco Laboratories) with 2% D(+)-glucose (Merck, Darmstadt, Germany) to a concentration of 4 × 10^5 spores/mL. The spores (50 µL) were inoculated on 96 microwell plates (Thermo Fisher Scientific) containing the synthetic peptides (50 µL) and controls (water or antibiotic). The peptides were diluted in MQ-H2O at final concentrations ranging from 250–3.9 µg/mL in two-fold serial dilutions. Triclosan (Sigma-Aldrich, Steinheim, Germany) was used as a positive (antifungal) control (32–0.25 µg/mL), and MQ-H2O as a negative (growth) control. Cultures were grown in room temperature for 24 h (Ca) and 48 h (Ap and Rh). Growth inhibition was determined by measuring OD values at 600 nm by a microplate reader (Synergy H1 Hybrid Multi-Mode Reader, BioTek, Winooski, VT, USA). […] All experiments were done in triplicate.

Another test relates to Rhodotorula sp. Briefly: microbe, parasite or virus in culture. The test is classed as cell-based. As for the experimental part: as §6
A further test has as its system Aureobasidium pullulans. Briefly: microbe, parasite or virus in culture. Type of test: cell-based. As for the experimental part:
as §6

In test [6] the test system is Corynebacterium glutamicum (ATCC 13032). As to conditions: turgencin A data ref Hansen et al. [24]; cited from earlier work. The text has this:
Table 3 Antimicrobial activities of turgencin A and the synthesized StAMP-1–11 peptides. | column: Gram-Pos / Cg

The test system of test [7] is Pseudomonas aeruginosa (ATCC 27853). Particulars: turgencin A data ref Hansen et al. [24]; cited from earlier work. The text has this: Table 3 Antimicrobial activities of turgencin A and the synthesized StAMP-1–11 peptides. | column: Gram-Neg / Pa
Test [8] concerns Staphylococcus aureus (ATCC 9144). Briefly: microbe, parasite or virus in culture. The test is classed as cell-based. Particulars: ATCC 9144, 24 h. As for the experimental part: as §4, §5
For test [9], the system named is Corynebacterium glutamicum (ATCC 13032). Nature of the test: microbe, parasite or virus in culture. Type of test: cell-based. Particulars: ATCC 13032, 24 h. As for the experimental part: as §4, §5
Test [10] relates to Bacillus subtilis (ATCC 23857). Briefly: microbe, parasite or virus in culture. Type of test: cell-based. As to conditions: ATCC 23857, 24 h. The procedure: as §4, §5
In a further test the test system is three fungal strains. The test is classed as cell-based. Particulars: 24 h. As for the experimental part: as §6, with “Cultures were grown in room temperature for 24 h (Ca) and 48 h (Ap and Rh).” left out
Test [11] concerns Pseudomonas aeruginosa (ATCC 27853). Nature of the test: microbe, parasite or virus in culture. The test is classed as cell-based. As to conditions: ATCC 27853, 24 h. The procedure: as §5
The test system of test [12] is Escherichia coli (ATCC 25922). Briefly: microbe, parasite or virus in culture. The test is classed as cell-based. Particulars: ATCC 25922, 24 h. The procedure: as §5
The mark [13] stands for this setting: potato dextrose broth with 2% glucose, room temperature 48 h, OD 600 nm, >90% inhibition, triplicate.

On to `[H]/N=C(\N/C(=N/[H])NCCCCCCNC(=N)NC(=N)Nc1ccc(Cl)cc1)Nc1ccc(Cl)cc1` [Chlorhexidine], for which the “concentration with no observed membrane activity” value (in test [1]; in the test on B. subtilis 168; in the test on E. coli K12 (pCGLS-11); in the test with E. coli K12 (pCSS962)) was 0.8 µg/mL in each case.

`CSCC[C@@H]1NC(=O)[C@H](CCCCN)NC(=O)[C@@H](NC(=O)[C@H](C)NC(=O)[C@H](C)NC(=O)[C@H](CCCCN)NC(=O)[C@@H](NC(=O)[C@H](CCCCN)NC(=O)[C@@H]2CCCN2C(=O)CN)[C@@H](C)O)CSSC[C@@H](C(=O)N[C@@H](CC(=O)O)C(=O)N[C@@H](C)C(=O)N[C@H](C(N)=O)C(C)C)NC(=O)CNC(=O)[C@H](CC(C)C)NC(=O)[C@H](CCC(=O)O)NC(=O)[C@@H]2CSSC[C@H](NC(=O)[C@H](C)NC1=O)C(=O)N[C@@H](CCCCN)C(=O)N[C@@H](CC(C)C)C(=O)N[C@@H](C)C(=O)N[C@@H]([C@@H](C)O)C(=O)N[C@H]1CSSC[C@H](NC(=O)[C@H](CCCCN)NC(=O)[C@H](Cc3c[nH]c4ccccc34)NC(=O)CNC(=O)CNC(=O)[C@@H]3CCCN3C(=O)[C@H](CCCCN)NC(=O)[C@H](CCCCN)NC(=O)CNC1=O)C(=O)N[C@@H](CCCCN)C(=O)N[C@@H](CC(C)C)C(=O)N2` [Turgencin A] (H-GPKTKAACKMACKLATCGKKPGGWKCKLCELGCDAV-NH2; disulfide 8-33, 12-29, 17-26; N-terminus assumed): the “Antimicrobial Activity (MIC) Ec” value in test [2] is 3.0 mg/L. Besides, in the test on Bacillus megaterium (Bacillus megaterium, MH medium, 24 h at 35 °C, OD 595 nm <10% of growth control, triplicates), the “Antimicrobial Activity (MIC) Bm” value stood at 0.5 mg/L. In addition, in the test with Micrococcus luteus (Micrococcus luteus, MH medium, 24 h at 35 °C, OD 595 nm <10% of growth control, triplicates), the “Antimicrobial Activity (MIC) Ml” value turned out to be 8.0 mg/L. Further, the “Antimicrobial Activity (MIC) Sa” value in test [3] is 23.3 mg/L. In addition, the “Antimicrobial Activity (MIC) Bs” value in [4] was 1.5 mg/L. For the same compound, the “Antimicrobial Activity (MIC) Ca” value in test [5] (potato dextrose broth with 2% glucose, room temperature 24 h, OD 600 nm, >90% inhibition, triplicate) is 46.3 mg/L. The “Antimicrobial Activity (MIC) Rh” value with Rhodotorula sp. (setting [13]) is 23.2 mg/L. For the same compound, in the test with Aureobasidium pullulans (setting [13]), the “Antimicrobial Activity (MIC) Ap” value amounted to 92.6 mg/L. Moreover, the “Antimicrobial Activity (MIC) Cg” value in [6] was 1.5 mg/L. Besides, the “Antimicrobial Activity (MIC) Pa” value in test [7] is 5.9 mg/L.

Consider GKKWWWWKAK-NH2 [StAMP-8], for which the “Antimicrobial Activity (MIC) Bm” value in the test on Bacillus megaterium (Bacillus, 24 h) worked out at 3.9 mg/L. In addition, the “Antimicrobial Activity (MIC) Sa” value in test [8] amounted to 125 mg/L. In [9], the “Antimicrobial Activity (MIC) Cg” value was 7.8 mg/L. Also, the “Antimicrobial Activity (MIC) Bs” value in [10] is 7.8 mg/L. For the same compound, in the test with Micrococcus luteus (24 h), the “Antimicrobial Activity (MIC) Ml” value was determined as 15.6 mg/L. For the same compound, in [5] (ATCC 10231, 24 h), the “Antimicrobial Activity (MIC) Ca” value worked out at 15.6 mg/L. In the test with Rhodotorula sp. (48 h), the “Antimicrobial Activity (MIC) Rh” value amounted to 15.6 mg/L. Also, in the test with Aureobasidium pullulans (48 h), the “Antimicrobial Activity (MIC) Ap” value is 7.8 mg/L. Besides, the “MIC, range against the three fungal strains” value in the test with three fungal strains was 7.8 to 15.6 mg/L. Besides, the “Antimicrobial Activity (MIC) Pa” value in test [11] was determined as 125 mg/L. The “Antimicrobial Activity (MIC) Ec” value in test [12] was determined as 62.5 mg/L.
